Experimental data published in the NIST ThermoML archive (doi:10.1021/je100832h).
± gives the expanded uncertainty stated by the source.

Assays:
[1] = xn = mol fraction of the nth substance listed; conditions: 101.32 kPa, Liquid, Vibrating tube method
[2] = excess molar enthalpy (molar enthalpy of mixing); xn = mol fraction of the nth substance listed; conditions: 291.15 K, 101 kPa, Liquid, Calvet calorimetry

CCCCCCCCC [nonane] + CCOC(C)=O
[1]
Conditions	mass density [kg/m3]
291.15 K, x2 = 0	719.2 ± 0.56
291.15 K, x2 = 0.0328	721.88 ± 0.66
291.15 K, x2 = 0.0796	726 ± 0.67
291.15 K, x2 = 0.1292	730.54 ± 0.69
291.15 K, x2 = 0.2225	740.13 ± 0.72
291.15 K, x2 = 0.3076	750 ± 0.77
291.15 K, x2 = 0.3932	761.25 ± 0.81
291.15 K, x2 = 0.4659	771.77 ± 0.87
291.15 K, x2 = 0.5694	788.99 ± 0.92
291.15 K, x2 = 0.6015	794.91 ± 0.99
291.15 K, x2 = 0.6514	804.7 ± 1
291.15 K, x2 = 0.7041	815.84 ± 1.1
291.15 K, x2 = 0.7547	827.59 ± 1.2
291.15 K, x2 = 0.8076	840.96 ± 1.2
291.15 K, x2 = 0.8502	852.64 ± 1.3
291.15 K, x2 = 0.8954	866.2 ± 1.4
291.15 K, x2 = 0.9307	877.58 ± 1.6
291.15 K, x2 = 0.9918	899.59 ± 1.8
298.15 K, x2 = 0	713.85 ± 0.55
298.15 K, x2 = 0.0652	719.2 ± 0.65
298.15 K, x2 = 0.1102	723.17 ± 0.68
298.15 K, x2 = 0.1906	730.94 ± 0.7
298.15 K, x2 = 0.2667	739.14 ± 0.73
298.15 K, x2 = 0.3377	747.65 ± 0.77
298.15 K, x2 = 0.4128	757.7 ± 0.81
298.15 K, x2 = 0.4737	766.6 ± 0.85
298.15 K, x2 = 0.5212	774.12 ± 0.9
298.15 K, x2 = 0.5875	785.5 ± 0.93
298.15 K, x2 = 0.6305	793.54 ± 0.99
298.15 K, x2 = 0.6743	802.32 ± 1.1
298.15 K, x2 = 0.7212	812.53 ± 1.1
298.15 K, x2 = 0.767	823.2 ± 1.2
298.15 K, x2 = 0.8024	832.16 ± 1.2
298.15 K, x2 = 0.8428	843.01 ± 1.3
298.15 K, x2 = 0.8654	849.38 ± 1.4
298.15 K, x2 = 0.9419	873.16 ± 1.5
298.15 K, x2 = 0.9564	878.07 ± 1.6
318.15 K, x2 = 0	698.09 ± 0.54
318.15 K, x2 = 0.0372	700.83 ± 0.63
318.15 K, x2 = 0.1287	708.3 ± 0.65
318.15 K, x2 = 0.2206	717 ± 0.69
318.15 K, x2 = 0.3125	726.84 ± 0.72
318.15 K, x2 = 0.3941	736.68 ± 0.77
318.15 K, x2 = 0.4659	746.38 ± 0.81
318.15 K, x2 = 0.5311	756.19 ± 0.87
318.15 K, x2 = 0.5965	767.1 ± 0.93
318.15 K, x2 = 0.6714	781.02 ± 0.98
318.15 K, x2 = 0.7111	789.15 ± 1.1
318.15 K, x2 = 0.7598	799.77 ± 1.1
318.15 K, x2 = 0.8122	812.28 ± 1.2
318.15 K, x2 = 0.8596	824.75 ± 1.3
318.15 K, x2 = 0.8955	835.04 ± 1.4
318.15 K, x2 = 0.936	847.56 ± 1.4
318.15 K, x2 = 0.9808	862.66 ± 1.5
328.15 K, x2 = 0	690.4 ± 0.54
328.15 K, x2 = 0.0202	691.7 ± 0.6
328.15 K, x2 = 0.1246	699.9 ± 0.64
328.15 K, x2 = 0.2225	708.81 ± 0.67
328.15 K, x2 = 0.3109	717.88 ± 0.71
328.15 K, x2 = 0.3923	727.35 ± 0.75
328.15 K, x2 = 0.4644	736.84 ± 0.8
328.15 K, x2 = 0.5377	747.63 ± 0.85
328.15 K, x2 = 0.6125	759.98 ± 0.94
328.15 K, x2 = 0.7233	781.1 ± 0.99
328.15 K, x2 = 0.7593	788.8 ± 1.1
328.15 K, x2 = 0.8102	800.56 ± 1.1
328.15 K, x2 = 0.8505	810.9 ± 1.2
328.15 K, x2 = 0.8934	822.54 ± 1.3
328.15 K, x2 = 0.9507	840.17 ± 1.4
328.15 K, x2 = 0.9876	852.64 ± 1.5

[2]
Conditions	excess molar enthalpy [kcal/mol]
x2 = 0.0872	0.132 ± 0.00287
x2 = 0.1735	0.225 ± 0.00478
x2 = 0.2499	0.299 ± 0.00645
x2 = 0.3159	0.351 ± 0.00741
x2 = 0.3746	0.383 ± 0.00813
x2 = 0.433	0.404 ± 0.0086
x2 = 0.4869	0.414 ± 0.00884
x2 = 0.534	0.416 ± 0.00884
x2 = 0.5836	0.412 ± 0.00884
x2 = 0.6005	0.406 ± 0.0086
x2 = 0.6419	0.393 ± 0.00837
x2 = 0.6885	0.374 ± 0.00789
x2 = 0.7366	0.346 ± 0.00741
x2 = 0.7846	0.31 ± 0.00669
x2 = 0.8345	0.263 ± 0.00574
x2 = 0.8779	0.205 ± 0.00454
x2 = 0.9237	0.141 ± 0.00311
x2 = 0.9619	0.0734 ± 0.00167
